Data published in patent US20180002295A1, “Compositions and Methods for Treating Anxiety and Compulsive Behavior” (University of Iowa Research Foundation, priority 2015, published 2018).
Entries after “also recorded” stand apart in the source; their conditions may differ.

How the values were obtained:
SAPAP3-deficient mice [1] = test: Spray-induced grooming assay (baseline and spray-induced grooming) in SAPAP3-deficient mice; assay type: in vivo; conditions: compared with wild type
SAPAP3-deficient mice [2] = conditions: reference 4; cited from earlier work
[3] = intracerebroventricular infusion into left lateral ventricle for 7 days by osmotic minipump
[4] = intraperitoneal, 10 mg/kg/d, 10 mg/kg/day

Row | SMILES | basal (baseline) grooming (SAPAP3-deficient mice [1]; [3]) | spray-induced grooming (SAPAP3-deficient mice [1]; [3]) | basal (baseline) grooming (SAPAP3-deficient mice [1]; [4]) | spray-induced grooming (SAPAP3-deficient mice [1]; [4]) | compulsive grooming leading to acquisition of facial lesions (SAPAP3-deficient mice [2])
1 | CCOc1ccc2nc(N/C(=N/C(=O)CC)NC(=O)CC)nc(C)c2c1 [P5C6] | normalized | normalized | – | – | –
2 | CNCCC(Oc1ccc(C(F)(F)F)cc1)c1ccccc1 (centres unmarked) [fluoxetine] | – | – | restored to wild type levels; also recorded: normalized | restored to wild type levels; also recorded: normalized | ameliorated
